# Data taken from ChEMBL document CHEMBL1156251, “Structure--activity relationships of polymyxin antibiotics” (J Med Chem, 2010).
# Where a SMILES comes first, the peptide text is derived from it. Bridges are numbered along the chain shown (N, C = ends). [ ]: non-standard residue; d: D form. The star is where a group is joined. Octanoyl = CCCCCCCC(=O)*; Dab = NCC[C@H](N)C(=O)O
# Columns and labels:
# Escherichia coli = assay: Antimicrobial activity against Escherichia coli; type: functional
# Salmonella enterica = assay: Antimicrobial activity against Salmonella enterica; type: functional
# Pseudomonas aeruginosa = assay: Antimicrobial activity against Pseudomonas aeruginosa; type: functional, organism-based
SMILES,MIC (Escherichia coli),MIC (Salmonella enterica),MIC (Pseudomonas aeruginosa)
CC(=O)N[C@H](C(=O)N[C@@H](CCN)C(=O)N[C@H]1CCNC(=O)[C@H]([C@@H](C)O)NC(=O)[C@H](CCN)NC(=O)[C@H](CCN)NC(=O)[C@H](CC(C)C)NC(=O)[C@@H](CC(C)C)NC(=O)[C@H](CCN)NC1=O)[C@@H](C)O,128 µM,> 512 µM,2 µM
CC(=O)N[C@H](C(=O)N[C@@H](CCN)C(=O)N[C@H]1CCNC(=O)[C@H]([C@@H](C)O)NC(=O)[C@H](CCN)NC(=O)[C@H](CCN)NC(=O)[C@H](CC(C)C)NC(=O)[C@@H](Cc2ccccc2)NC(=O)[C@H](CCN)NC1=O)[C@@H](C)O,32 µM,128 µM,2 µM
CCCCCCCCCCCCCC(=O)N[C@H](C(=O)N[C@@H](CCN)C(=O)N[C@H]1CCNC(=O)[C@H]([C@@H](C)O)NC(=O)[C@H](CCN)NC(=O)[C@H](CCN)NC(=O)[C@H](CC(C)C)NC(=O)[C@@H](Cc2ccccc2)NC(=O)[C@H](CCN)NC1=O)[C@@H](C)O,4 µM,4 µM,4 µM
CC(C)C[C@@H]1NC(=O)[C@@H](CC(C)C)NC(=O)[C@H](CCN)NC(=O)[C@@H](NC(=O)[C@H](CCN)NC(=O)[C@@H](NC(=O)[C@H](CCN)NC(=O)CC23CC4CC(CC(C4)C2)C3)[C@@H](C)O)CCNC(=O)[C@H]([C@@H](C)O)NC(=O)[C@H](CCN)NC(=O)[C@H](CCN)NC1=O,2 µM,1 µM,1 µM
CC(C)C[C@@H]1NC(=O)[C@@H](CC(C)C)NC(=O)[C@H](CCN)NC(=O)[C@@H](NC(=O)[C@H](CCN)NC(=O)[C@@H](NC(=O)[C@H](CCN)NC(=O)Cc2ccc(-c3ccccc3)cc2)[C@@H](C)O)CCNC(=O)[C@H]([C@@H](C)O)NC(=O)[C@H](CCN)NC(=O)[C@H](CCN)NC1=O,1 µM,2 µM,1 µM
CC(C)C[C@@H]1NC(=O)[C@@H](Cc2ccccc2)NC(=O)[C@H](CCN)NC(=O)[C@@H](NC(=O)[C@H](CCN)NC(=O)[C@@H](NC(=O)[C@H](CCN)NC(=O)CCCC2CCCCC2)[C@@H](C)O)CCNC(=O)[C@H]([C@@H](C)O)NC(=O)[C@H](CCN)NC(=O)[C@H](CCN)NC1=O,0.5 µM,0.5 µM,1 µM
CC(C)C[C@@H]1NC(=O)[C@@H](CC(C)C)NC(=O)[C@H](CCN)NC(=O)[C@@H](NC(=O)[C@H](CCN)NC(=O)[C@@H](NC(=O)[C@H](CCN)NC(=O)c2ccc3cc4ccccc4cc3c2)[C@@H](C)O)CCNC(=O)[C@H]([C@@H](C)O)NC(=O)[C@H](CCN)NC(=O)[C@H](CCN)NC1=O,4 µM,2 µM,2 µM
CCCCCCCC(=O)N[C@@H](CCNS(=O)(=O)c1cccc2c(N(C)C)cccc12)C(=O)N[C@H](C(=O)N[C@@H](CCN)C(=O)N[C@H]1CCNC(=O)[C@H]([C@@H](C)O)NC(=O)[C@H](CCN)NC(=O)[C@H](CCN)NC(=O)[C@H](CC(C)C)NC(=O)[C@@H](Cc2ccccc2)NC(=O)[C@H](CCN)NC1=O)[C@@H](C)O,1 µM,1 µM,1 µM
CCCCCCCC(=O)N[C@@H](C)C(=O)N[C@H](C(=O)N[C@@H](CCN)C(=O)N[C@H]1CCNC(=O)[C@H]([C@@H](C)O)NC(=O)[C@H](CCN)NC(=O)[C@H](CCN)NC(=O)[C@H](CC(C)C)NC(=O)[C@@H](Cc2ccccc2)NC(=O)[C@H](CCN)NC1=O)[C@@H](C)O (Octanoyl-AT[Dab][Dab][Dab][dF]L[Dab][Dab]T; lactam 4-C),2 µM,2 µM,2 µM
CCCCCCCC(=O)N[C@@H](CCN)C(=O)N[C@@H](C)C(=O)N[C@@H](CCN)C(=O)N[C@H]1CCNC(=O)[C@H]([C@@H](C)O)NC(=O)[C@H](CCN)NC(=O)[C@H](CCN)NC(=O)[C@H](CC(C)C)NC(=O)[C@@H](Cc2ccccc2)NC(=O)[C@H](CCN)NC1=O (Octanoyl-[Dab]A[Dab][Dab][Dab][dF]L[Dab][Dab]T; lactam 4-C),8 µM,4 µM,2 µM
